This assay deals with T1, hM4DREADD in Tac2+ neurons (Homo sapiens, UniProt P08173, A203G/Y113C).
T1 construct: host or cells: Tac2+ neurons of Tac2-Cre mice (dBNSTa, DMH or CeA), transduced in vivo with AAV2-EF1a-DIO-hM4D-mCherry
T1 sequence (P08173 1-479 Y113C/A203G): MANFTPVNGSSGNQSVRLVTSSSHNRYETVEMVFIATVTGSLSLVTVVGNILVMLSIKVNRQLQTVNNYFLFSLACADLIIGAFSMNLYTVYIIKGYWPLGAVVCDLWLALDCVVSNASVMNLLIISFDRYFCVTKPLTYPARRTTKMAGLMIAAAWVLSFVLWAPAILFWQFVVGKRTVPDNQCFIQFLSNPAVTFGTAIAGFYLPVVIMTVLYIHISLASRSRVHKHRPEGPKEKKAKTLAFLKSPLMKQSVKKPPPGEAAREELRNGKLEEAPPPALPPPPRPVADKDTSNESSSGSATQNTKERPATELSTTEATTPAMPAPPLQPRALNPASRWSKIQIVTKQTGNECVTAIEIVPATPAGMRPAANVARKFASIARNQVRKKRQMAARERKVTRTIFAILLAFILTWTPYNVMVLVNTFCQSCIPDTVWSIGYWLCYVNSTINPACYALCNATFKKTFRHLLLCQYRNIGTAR
The assay is described as follows: Looming disk assay, CNO silencing of Tac2+ neurons (hM4DREADD). The assay is classed as in vivo, mouse. As to conditions: SIS Tac2-Cre mice, CNO 5 mg/kg i.p. The protocol:
Freezing behavior to presentation of an overhead looming disk proceeded as previously described (Kunwar et al., 2015; Yilmaz and Meister, 2013; incorporated by reference in their entirety). Briefly, mice were transported to a novel behavioral testing room. After 5 minutes of acclimation, mice were placed inside a novel, custom-built open top Plexiglas arena (48×48×30 cm) covered with a flat screen monitor placed directly above and with illumination provided by infrared LEDs (Marubeni). Mice were given a 5 minute baseline period in the arena, after which entry into the center of the arena triggered presentation of a single, 10 second overhead looming disk stimulus (comprised of a single looming disk presentation 0.5 seconds in duration, which was repeated 10 times with an inter-stimulus interval of 0.5 seconds). The stimulus was controlled by custom MATLAB code (M. Meister, Caltech) run on a dedicated computer in an adjacent room. Mice remained in the area for an additional 2 minutes before being transported back. Behavior was recorded using a video recorder attached to a laptop equipped with video capture software (Corel VideoStudio Pro). Acute freezing behavior to the looming disk (“during”) as well as in the 30 seconds following the last disk (“post”) were scored manually (Behavior Annotator, MATLAB) by an observer blind to environmental conditions. […]

This is an account of results in patent US12083109B2, “Neurokinin antagonists and uses thereof” (California Institute of Technology, priority 2017, dated 2024).

“Also recorded” adds a separate entry of the source.

As for `C[N+]1([O-])CCN(C2=Nc3cc(Cl)ccc3Nc3ccccc32)CC1` [CNO, clozapine-N-oxide], the “acute (during) freezing to looming disk” value (hM4DREADD in CeA) is listed as “blocked; also recorded: suppressed”. Moreover, the “persistent (post) freezing to looming disk” value (hM4DREADD in dBNSTa) was “blocked; also recorded: selectively attenuated”.
